US8420697B2, “Treatment of acute exacerbation of asthma and reduction of likelihood of hospitalization of patients suffering therefrom” (MediciNova, Inc., priority 2009, dated 2013)
Counter-ions that a name gives are not always drawn. Marks after values point to notes of the source that are not given here.

How the values were obtained:
Hu β2 [1] = molecular target: T1, Hu β2 (Homo sapiens, UniProt P07550); assay: Cell bioassay, cAMP accumulation, human β2 in CHO; format: cell-based
T1 construct: host or cells: CHO
T1 sequence (P07550 whole entry): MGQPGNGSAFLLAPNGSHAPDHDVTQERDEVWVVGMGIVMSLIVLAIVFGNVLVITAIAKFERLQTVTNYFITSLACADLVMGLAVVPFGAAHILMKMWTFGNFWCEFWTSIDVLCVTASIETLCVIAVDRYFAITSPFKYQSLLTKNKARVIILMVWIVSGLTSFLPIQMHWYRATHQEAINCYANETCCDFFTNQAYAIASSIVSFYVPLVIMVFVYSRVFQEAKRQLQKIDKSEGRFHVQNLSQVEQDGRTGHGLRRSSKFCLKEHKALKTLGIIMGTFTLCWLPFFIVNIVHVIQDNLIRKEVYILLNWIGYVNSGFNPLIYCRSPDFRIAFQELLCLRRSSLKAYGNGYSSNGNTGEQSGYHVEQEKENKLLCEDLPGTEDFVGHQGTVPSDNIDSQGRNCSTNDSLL
From the text: (§1) The Active Agent (MN-221 a/k/a bedoradrine or its pharmaceutically acceptable salts) administered intravenously allows it to distribute and partition into the congested lung tissue of AEA patients and allow bronchodilation without undue cardiovascular side effects. Table 1, below, provides an example of the adrenoceptor action profile for MN-221 determined experimentally: [table]

ragweed sensitized dogs = assay: Reversal of ragweed-induced bronchoconstriction in sensitized dogs; format: in vivo; details: i.v. 0.04 to 0.4 mg/kg; between 0.75 and 6.7 min after dosing; p<0.001 up to 4.5 min, p<0.01 up to 6.7 min
Human β1 [2] = molecular target: T2, Human β1 (Homo sapiens, UniProt P08588); assay: Cell bioassay, cAMP accumulation, human β1 in HEK; format: cell-based; details: read-out: cell bioassay (EC50 cAMP accum.) β1
T2 construct: host or cells: HEK
T2 sequence (P08588 whole entry): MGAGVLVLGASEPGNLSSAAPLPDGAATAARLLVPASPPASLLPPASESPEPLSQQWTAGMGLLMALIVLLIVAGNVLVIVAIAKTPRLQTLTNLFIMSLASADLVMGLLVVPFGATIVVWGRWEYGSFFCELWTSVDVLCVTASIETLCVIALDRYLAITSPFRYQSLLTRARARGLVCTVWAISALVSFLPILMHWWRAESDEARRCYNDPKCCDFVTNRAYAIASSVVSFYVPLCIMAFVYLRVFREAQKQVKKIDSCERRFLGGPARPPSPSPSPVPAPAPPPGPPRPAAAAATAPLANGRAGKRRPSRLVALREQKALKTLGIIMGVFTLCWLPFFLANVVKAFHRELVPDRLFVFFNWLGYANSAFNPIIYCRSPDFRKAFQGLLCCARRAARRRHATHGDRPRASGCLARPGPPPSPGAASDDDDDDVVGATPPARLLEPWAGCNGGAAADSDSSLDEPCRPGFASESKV
From the text: as §1

patients with severe AEA = assay: Clinical study of MN-221 plus SOC in emergency department patients with AEA; format: in vivo, humans
Procedure: MN-221 was tested at escalating doses of 240 μg to 1,080 μg in patients with AEA treated in emergency departments (EDs). The study included 29 (13 treated with SOC only and 16 treated with MN-221 in combination with SOC) patients with severe AEA. All patients were administered SOC treatment as follows: supplemental oxygen given to maintain oxygen saturation measured by pulse oximetry of ≧90%; two doses of inhaled beta2-agonist (in this study, albuterol 5 mg) via nebulizer given approximately every 20 minutes; simultaneously with two doses of an inhaled anti-cholinergic agent (in this study, ipratropium 0.5 mg) via nebulizer given approximately every 20 minutes; one dose of corticosteroid given orally (in this study, prednisone 60 mg) or intravenously (in this study, methylprednisolone 125 mg), and intravenous magnesium sulfate (2 gm, diluted with 50-100 mL normal saline) and given over 10 minutes to patients with an FEV1≦25% of predicted upon ED presentation treatment.
MN-221 was administered at the following doses: 16 μg/min for 15 minutes (total of 240 μg); 30 μg/min for 15 minutes (total of 450 μg); 16 μg/min for 15 minutes; 8 μg/min for 105 minutes (total of 1,080 μg). A lyophilized unit dose for of MN-221, containing 2 mg MN-221 and lactose in a 10 mL vial was employed in the administration. Vials containing 2 mg (2000 μg) of MN-221 and vials containing placebo were reconstituted as follows. 4 mL of 5% dextrose in water was added to each 10 mL vial containing MN-221 to make 500 μg/mL stock solution (2000 μg/4 mL=500 μg/mL). 2 mL (1,000 μg) of stock solution was added to 123 mL 5% dextrose in water to make the total volume of 125 mL (123 mL+2 mL=125 mL). Final MN-221 solution equal to 1,000 μg/125 mL or 8 μg/mL was prepared this way.
Patients were administered SOC treatment (inhaled albuterol, 2.5 mg via nebulizer up to every 20 minutes) and ipratropium (0.5 mg via nebulizer up to every 20 minutes) in addition to treatment with MN-221 or placebo.

telemetered dogs = assay: Cardiovascular safety in telemetered dogs, i.v. MN-221 with nebulized albuterol; format: in vivo; details: for heart rate, agent alone: albuterol inhaled 5 or 10 ug/kg, MN-221 i.v. over 15 min 0.3, 3 or 30 ug/kg; for MAP or QTc, agent alone: either agent at any dose
Procedure: In a separate study with telemetered dogs at the Lovelace Respiratory Research Institute, the effect of i.v. MN-221 administration in addition to nebulized albuterol was performed to assess cardiovascular changes and safety of the combination therapy. Albuterol was administered by inhalation at 5 or 10 ug/kg and MN-221 was intravenously administered over 15 min at 0.3, 3, or 30 ug/kg. […] See, FIG. 4.

Hu β2 [3] = molecular target: T1, Hu β2; assay: Competitive binding (Cerep 14320), human β2
From the text: as §1

β1 (GP Rt atrium) = assay: Ex vivo organ bioassay (Cerep 13271), GP right atrium
From the text: as §1

Human β1 [4] = molecular target: T2, Human β1; assay: Competitive binding (Cerep 14320), human β1; details: HEK (Human β1)
From the text: as §1

[5] = molecular target: T3, β2 (GP carbachol-tx trachea) (Cavia porcellus, UniProt Q8K4Z4); assay: Ex vivo organ bioassay (Cerep 13271), GP carbachol-treated trachea
T3 construct: tissue Cerep; host or cells: guinea pig trachea, carbachol-contracted
T3 sequence (Q8K4Z4 whole entry): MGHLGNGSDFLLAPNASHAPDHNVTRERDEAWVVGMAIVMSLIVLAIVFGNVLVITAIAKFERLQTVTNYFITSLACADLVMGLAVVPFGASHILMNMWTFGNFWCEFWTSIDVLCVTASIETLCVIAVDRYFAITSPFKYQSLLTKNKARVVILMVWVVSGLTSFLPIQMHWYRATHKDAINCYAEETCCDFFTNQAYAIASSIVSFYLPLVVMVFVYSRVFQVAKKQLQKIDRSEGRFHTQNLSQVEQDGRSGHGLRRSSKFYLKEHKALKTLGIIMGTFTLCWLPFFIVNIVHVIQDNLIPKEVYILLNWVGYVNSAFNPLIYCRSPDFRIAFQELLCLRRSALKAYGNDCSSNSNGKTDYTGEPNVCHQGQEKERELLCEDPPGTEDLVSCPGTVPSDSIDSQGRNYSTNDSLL
From the text: as §1

SMILES | EC50 (Hu β2 [1]; CHO (Hu β2), read-out: cell bioassay (EC50 cAMP accum.) β2) [nM] | cell bioassay cAMP accum. β1/β2 (Hu β2 [1]; ratio of EC50 β1 to β2) | reversal of ragweed-induced bronchoconstriction (ragweed sensitized dogs) | EC50 (Human β1 [2]) [nM] | safety (ECG, laboratory, adverse experience data) (patients with severe AEA; MN-221 added to standardized care) | heart rate change in patients (patients with severe AEA; MN-221 combined with SOC, FIG. 2) | Improvement in FEV1 values versus SOC (patients with severe AEA; MN-221 in addition to SOC treatment) | hospitalization rate (patients with severe AEA; MN-221 with SOC, 4 of 16 patients, SOC only 54% (7 of 13)) [%] | MAP, QTc with combination therapy (telemetered dogs; MN-221 plus albuterol) | heart rate, agent alone (telemetered dogs) | heart rate, MN-221 added on top of albuterol (telemetered dogs; clinically-relevant doses of both) | MAP or QTc, agent alone (telemetered dogs) | IC50 (Hu β2 [3]; CHO (Hu β2)) [nM] | Competitive Binding β1/β2 (Hu β2 [3]; ratio of IC50 β1 to β2) | agonist character (β1 (GP Rt atrium); GP Rt atrium) | ex vivo Organ bioassay est EC39 β1 (β1 (GP Rt atrium); GP Rt atrium (% isoprot), EC39 = 39% of isoproterenol maximum response) | Emax (β1 (GP Rt atrium); GP Rt atrium, % of isoproterenol maximum response) | IC50 (Human β1 [4]) [nM] | EC50 ([5]; GP carbachol-tx trachea (% salbut)) [nM] | ex vivo Organ bioassay β1/β2 ([5]; ratio of EC39 (atrium) to EC50 (trachea))
CN(C)C(=O)COc1ccc2c(c1)C[C@@H](NC[C@H](O)c1ccc(O)c(CCO)c1)CC2 [MN-221, acetamide, N,N-dimethyl-2-[[(7S)-5,6,7,8-tetrahydro-7-[[(2R)-2-hydroxy-2-[4-hydroxy-3-(2-hydroxyethyl)phenyl]ethyl]amino]-2-naphthalenyl]oxy], sulfate] | 13 | >3000 | statistically significant, and near maximal reversal of bronchoconstriction | > 50000 | No safety concerns | absence of significant heart rate increase | generally appeared to be greater | 25 | not adversely changed | increased heart rate to a modest level | no additional increase in heart rate | No adverse changes | 270 | 42 | a partial agonist. | ~1* μM | Emax = 39% | 11800 | 28 | 36
CC(C)(C)NCC(O)c1ccc(O)c(CO)c1 (stereo not shown) [albuterol, reference compound] |  |  |  |  |  |  |  |  |  | increased heart rate to a modest level |  | No adverse changes |  |  |  |  |  |  |  | 
